Counter-ions that a name gives are not always drawn.

The target of the assay is PI3Kδ (p110δ/p85α) (Homo sapiens (Human), UniProt O00329). Kind of assay: Example A3: PI3Kδ scintillation proximity assay. As to conditions: scintillation proximity assay, 20 μM ATP, 4 nM PI3Kδ; read-out: PI3Kδ SPA IC50. The assay is classed as biochemical. The method, boiled down: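 p110δ/p85α (4 nM) phosphorylated 20 μM PIP2 with 20 μM ATP plus [γ-33P]ATP in MOPS pH 6.7, MgCl2, DTT, CHAPS, 0.5% DMSO, at RT. Stopped with EDTA/excess ATP, product captured on WGA SPA beads overnight and counted; IC50 from percent control activity versus log inhibitor.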
Chain of PI3Kδ (p110δ/p85α) (O00329 whole entry): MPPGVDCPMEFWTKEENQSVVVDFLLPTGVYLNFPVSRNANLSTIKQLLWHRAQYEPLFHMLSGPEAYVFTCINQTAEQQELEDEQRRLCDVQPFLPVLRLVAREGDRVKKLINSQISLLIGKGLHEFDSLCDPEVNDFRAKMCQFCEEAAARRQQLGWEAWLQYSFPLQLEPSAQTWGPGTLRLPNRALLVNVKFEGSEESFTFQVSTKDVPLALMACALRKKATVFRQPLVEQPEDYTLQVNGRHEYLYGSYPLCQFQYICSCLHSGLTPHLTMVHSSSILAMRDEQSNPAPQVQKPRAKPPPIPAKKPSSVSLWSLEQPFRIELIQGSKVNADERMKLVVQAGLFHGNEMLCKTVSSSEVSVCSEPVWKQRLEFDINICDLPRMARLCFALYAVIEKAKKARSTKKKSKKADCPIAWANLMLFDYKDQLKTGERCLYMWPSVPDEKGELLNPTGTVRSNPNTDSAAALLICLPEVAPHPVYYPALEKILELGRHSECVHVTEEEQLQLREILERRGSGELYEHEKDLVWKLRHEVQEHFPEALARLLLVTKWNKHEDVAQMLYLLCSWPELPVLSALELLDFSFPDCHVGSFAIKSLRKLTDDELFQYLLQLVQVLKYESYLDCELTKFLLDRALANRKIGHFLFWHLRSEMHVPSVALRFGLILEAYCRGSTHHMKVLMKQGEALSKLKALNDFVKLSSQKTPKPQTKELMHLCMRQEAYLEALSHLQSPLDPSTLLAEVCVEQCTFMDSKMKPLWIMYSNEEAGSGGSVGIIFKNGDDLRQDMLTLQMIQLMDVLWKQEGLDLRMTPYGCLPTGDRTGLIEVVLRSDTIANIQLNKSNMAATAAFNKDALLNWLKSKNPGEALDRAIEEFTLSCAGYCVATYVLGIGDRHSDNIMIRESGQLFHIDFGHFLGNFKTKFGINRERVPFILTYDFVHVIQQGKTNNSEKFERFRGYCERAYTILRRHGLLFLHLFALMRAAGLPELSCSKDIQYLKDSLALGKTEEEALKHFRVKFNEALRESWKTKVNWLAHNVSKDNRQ
Chain of PI3Kδ (p110δ/p85α) (P27986 whole entry partner): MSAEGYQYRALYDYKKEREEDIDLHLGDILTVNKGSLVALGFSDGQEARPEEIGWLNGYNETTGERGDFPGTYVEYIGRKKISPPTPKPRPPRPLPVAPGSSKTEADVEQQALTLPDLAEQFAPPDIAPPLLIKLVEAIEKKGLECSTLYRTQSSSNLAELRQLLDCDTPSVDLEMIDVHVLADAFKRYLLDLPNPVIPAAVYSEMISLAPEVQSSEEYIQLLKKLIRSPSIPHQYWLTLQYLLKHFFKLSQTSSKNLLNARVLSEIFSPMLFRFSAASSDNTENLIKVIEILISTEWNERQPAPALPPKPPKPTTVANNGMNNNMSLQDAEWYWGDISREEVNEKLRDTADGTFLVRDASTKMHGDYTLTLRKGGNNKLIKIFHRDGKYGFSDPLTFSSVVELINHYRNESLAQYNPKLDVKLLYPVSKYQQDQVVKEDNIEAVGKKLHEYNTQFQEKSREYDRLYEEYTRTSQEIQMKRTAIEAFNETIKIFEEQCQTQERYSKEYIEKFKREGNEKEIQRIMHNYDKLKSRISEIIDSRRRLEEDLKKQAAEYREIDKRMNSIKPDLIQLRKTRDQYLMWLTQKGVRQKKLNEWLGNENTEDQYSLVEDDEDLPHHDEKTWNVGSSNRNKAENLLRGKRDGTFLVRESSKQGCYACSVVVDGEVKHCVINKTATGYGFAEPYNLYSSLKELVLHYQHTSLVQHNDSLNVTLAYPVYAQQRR
For orientation: Scintillation proximity formats need no separation of bound from free tracer.
Usually IC50 stands for the point on the concentration scale where inhibition reaches its midpoint. Consider `COc1c(C(C)n2nc(C)c3c(N)ncnc32)cc(Cl)c(C)c1C1CN(C(=O)c2cnn(C)c2)C1` (single isomer, unassigned) [Example 117, 1-[1-(5-Chloro-2-methoxy-4-methyl-3-{1-[(1-methyl-1H-pyrazol-4-yl)carbonyl]azetidin-3-yl}phenyl)ethyl]-3-methyl-1H-pyrazolo[3,4-d]pyrimidin-4-amine], for which the IC50 was < 10 nM.
For `COc1c(C(C)n2ccc(=O)c3c(N)ncnc32)cc(Cl)c(C)c1-c1cccnc1` (racemic) [Example 28, 4-Amino-8-[1-(5-chloro-2-methoxy-4-methyl-3-pyridin-3-ylphenyl)ethyl]pyrido[2,3-d]pyrimidin-5(8H)-one bis(trifluoroacetate)] the value was < 10 nM; for `COc1c(C(C)n2nc(C(F)F)c3c(N)ncnc32)cc(Cl)c(F)c1C1CN(C(C)C)C1` (centres unmarked) [Example 73, 1-{1-[5-Chloro-4-fluoro-3-(1-isopropylazetidin-3-yl)-2-methoxyphenyl]ethyl}-3-(difluoromethyl)-1H-pyrazolo[3,4-d]pyrimidin-4-amine], < 10 nM; for `CCOc1c(C(C)n2ccc(=O)c3c(N)ncnc32)cc(Cl)c(C#N)c1-c1cncc(S(C)(=O)=O)c1` (racemic) [Example 46, 4-(1-(4-amino-5-oxopyrido[2,3-d]pyrimidin-8(5H)-yl)ethyl)-6-chloro-3-ethoxy-2-(5-(methylsulfonyl)pyridin-3-yl)benzonitrile], < 10 nM.
Consider `CCOc1c(C(C)n2nc(C)c3c(N)ncnc32)cc(Cl)c(C#N)c1C1CN(C(=O)OC(C)C)C1` (single isomer, unassigned) [Example 254, Isopropyl 3-{3-[1-(4-amino-3-methyl-1H-pyrazolo[3,4-d]pyrimidin-1-yl)ethyl]-5-chloro-6-cyano-2-ethoxyphenyl}azetidine-1-carboxylate], for which the IC50 is < 10 nM.
For `COc1c(C(C)n2nc(C)c3c(N)ncnc32)cc(Cl)c(C#N)c1C1CN(C(N)=O)C1` (single isomer, unassigned) [Example 293, 3-{3-[1-(4-Amino-3-methyl-1H-pyrazolo[3,4-d]pyrimidin-1-yl)ethyl]-5-chloro-6-cyano-2-methoxyphenyl}azetidine-1-carboxamide] the value was < 10 nM; for `CCOc1c(C(C)n2nc(C)c3c(N)ncnc32)cc(Cl)c(F)c1C1CN(CC(F)F)C1` (racemic) [Example 147, 1-(1-{5-Chloro-3-[1-(2,2-difluoroethyl)azetidin-3-yl]-2-ethoxy-4-fluorophenyl}ethyl)-3-methyl-1H-pyrazolo[3,4-d]pyrimidin-4-amine], < 10 nM.
For `CNC(=O)[C@@H](C)N1CC(c2c(C)c(Cl)cc(C(C)n3nc(C)c4c(N)ncnc43)c2OC)C1` (stereo partly drawn) [Example 110, (2R)-2-(3-{3-[1-(4-Amino-3-methyl-1H-pyrazolo[3,4-d]pyrimidin-1-yl)ethyl]-5-chloro-2-methoxy-6-methylphenyl}azetidin-1-yl)-N-methylpropanamide trifluoroacetate] the value was < 10 nM.
In the case of `COc1c(C(C)n2ccc3c(N)ncnc32)cc(Cl)c(C)c1-c1ccc(C(=O)N(C)C)nc1` (centres unmarked) [Example 12, 5-{3-[1-(4-Amino-7H-pyrrolo[2,3-d]pyrimidin-7-yl)ethyl]-5-chloro-2-methoxy-6-methylphenyl}-N,N-dimethylpyridine-2-carboxamide trifluoroacetate] it was 200 to 500 nM; in that of `CCOc1c(C(C)n2nc(C)c3c(N)ncnc32)cc(Cl)c(C#N)c1-c1ccc(C(C)(C)O)nc1` (racemic) [Example 316, 4-[1-(4-amino-3-methyl-1H-pyrazolo[3,4-d]pyrimidin-1-yl)ethyl]-6-chloro-3-ethoxy-2-[6-(1-hydroxy-1-methylethyl)pyridin-3-yl]benzonitrile], < 10 nM.
Consider `COc1c(C(C)n2nc(-c3cn[nH]c3)c3c(N)ncnc32)cc(Cl)c(C)c1C1CN(CC#N)C1` (centres unmarked) [Example 126, [3-(3-{1-[4-Amino-3-(1H-pyrazol-4-yl)-1H-pyrazolo[3,4-d]pyrimidin-1-yl]ethyl}-5-chloro-2-methoxy-6-methylphenyl)azetidin-1-yl]acetonitrile], for which the IC50 was < 10 nM.
For `CNC(=O)[C@H](C)N1CC(c2c(C)c(C#N)cc(C(C)n3nc(C(F)F)c4c(N)ncnc43)c2OC)C1` (stereo partly drawn) [Example 134, (2S)-2-[3-(3-{1-[4-Amino-3-(difluoromethyl)-1H-pyrazolo[3,4-d]pyrimidin-1-yl]ethyl}-5-cyano-2-methoxy-6-methylphenyl)azetidin-1-yl]-N-methylpropanamide] the value was < 10 nM.
In the case of `COc1c(C(C)n2nc(C(F)F)c3c(N)ncnc32)cc(Cl)c(F)c1C1CN(CCO)C1` (centres unmarked) [Example 74, 2-[3-(3-{1-[4-Amino-3-(difluoromethyl)-1H-pyrazolo[3,4-d]pyrimidin-1-yl]ethyl}-5-chloro-6-fluoro-2-methoxyphenyl)azetidin-1-yl]ethanol] it was < 10 nM.
On to `COc1c(C(C)n2nc(C(F)F)c3c(N)ncnc32)cc(C#N)c(C)c1C1CN(C(C)=O)C1` (racemic) [Example 138, 3-(1-Acetylazetidin-3-yl)-5-{1-[4-amino-3-(difluoromethyl)-1H-pyrazolo[3,4-d]pyrimidin-1-yl]ethyl}-4-methoxy-2-methylbenzonitrile], for which the IC50 was < 10 nM.
In the case of `CCOc1c(C(C)n2nc(-c3cnn(CCO)c3)c3c(N)ncnc32)cc(Cl)c(C)c1-c1ccc(C(=O)N(C)C)nc1` (centres unmarked) [Example 52, 5-[3-(1-{4-amino-3-[1-(2-hydroxyethyl)-1H-pyrazol-4-yl]-1H-pyrazolo[3,4-d]pyrimidin-1-yl}ethyl)-5-chloro-2-ethoxy-6-methylphenyl]-N,N-dimethylpyridine-2-carboxamide bis(trifluoroacetate)] it was < 10 nM; in that of `COc1c(C(C)n2nc(C)c3c(N)ncnc32)cc(Cl)c(C#N)c1C1CN(C(=O)N(C)C)C1` (single isomer, unassigned) [Example 296, 3-{3-[1-(4-Amino-3-methyl-1H-pyrazolo[3,4-d]pyrimidin-1-yl)ethyl]-5-chloro-6-cyano-2-methoxyphenyl}-N,N-dimethylazetidine-1-carboxamide], < 10 nM.
For `COc1c(C(C)n2nc(C)c3c(N)ncnc32)cc(Cl)c(F)c1C1CN(C[C@@H](C)O)C1` (stereo partly drawn) [Example 69, (2R)-1-(3-{3-[1-(4-Amino-3-methyl-1H-pyrazolo[3,4-d]pyrimidin-1-yl)ethyl]-5-cyloro-6-fluoro-2-methoxyphenyl}azetidin-1-yl)propan-2-ol] the value was < 10 nM.
For `CCOc1c(C(C)n2nc(C)c3c(N)ncnc32)cc(Cl)c(C#N)c1C1CN(C2CCOCC2)C1` (single isomer, unassigned) [Example 229, 4-[1-(4-Amino-3-methyl-1H-pyrazolo[3,4-d]pyrimidin-1-yl)ethyl]-6-chloro-3-ethoxy-2-[1-(tetrahydro-2H-pyran-4-yl)azetidin-3-yl]benzonitrile] the value was < 10 nM; for `COc1c(C(C)n2nc(C)c3c(N)ncnc32)cc(Cl)c(C)c1-c1ccnc(C(=O)NCCO)c1` (racemic) [Example 18, 4-{3-[1-(4-Amino-3-methyl-1H-pyrazolo[3,4-d]pyrimidin-1-yl)ethyl]-5-chloro-2-methoxy-6-methylphenyl}-N-(2-hydroxyethyl)pyridine-2-carboxamide], < 10 nM.
Consider `COc1c(C(C)n2nc(C)c3c(N)ncnc32)cc(Cl)c(C)c1C1CN(CC(C)C#N)C1` (centres unmarked) [Example 162, 3-(3-{3-[1-(4-Amino-3-methyl-1H-pyrazolo[3,4-d]pyrimidin-1-yl)ethyl]-5-chloro-2-methoxy-6-methylphenyl}azetidin-1-yl)-2-methylpropanenitrile], for which the IC50 was < 10 nM.
In the case of `COc1c(C(C)n2nc(C)c3c(N)ncnc32)cc(Cl)c(C)c1C1CN(C(CO)C(F)(F)F)C1` (centres unmarked) [Example 113, 2-(3-{3-[1-(4-Amino-3-methyl-1H-pyrazolo[3,4-d]pyrimidin-1-yl)ethyl]-5-chloro-2-methoxy-6-methylphenyl}azetidin-1-yl)-3,3,3-trifluoropropan-1-ol] it was < 10 nM.
For `COc1c(C(C)n2nc(C)c3c(N)ncnc32)cc(Cl)c(C)c1C1CN(C[C@@H](O)C(F)(F)F)C1` (single isomer, unassigned) [Example 115] the value was < 10 nM; for `CCNC(=O)c1c(C)c(Cl)cc(C(C)n2nc(-c3ccc4cn[nH]c4c3)c3c(N)ncnc32)c1OCC` (racemic) [Example 92, 3-{1-[4-Amino-3-(1H-indazol-6-yl)-1H-pyrazolo[3,4-d]pyrimidin-1-yl]ethyl}-5-chloro-2-ethoxy-N-ethyl-6-methylbenzamide], < 10 nM.
In the case of `CCOc1c(C(C)n2nc(C)c3c(N)ncnc32)cc(Cl)c(C)c1-c1ccc(C(=O)N(C)C)nc1` (centres unmarked) [Example 14, 5-{3-[1-(4-Amino-3-methyl-1H-pyrazolo[3,4-d]pyrimidin-1-yl)ethyl]-5-chloro-2-ethoxy-6-methylphenyl}-N,N-dimethylpyridine-2-carboxamide bis(trifluoroacetate)] it was < 10 nM; in that of `CCOc1c(C(C)n2nc(C)c3c(N)ncnc32)cc(Cl)c(C#N)c1C1CN(CCC(F)(F)F)C1` (single isomer, unassigned) [Example 234, 4-[1-(4-Amino-3-methyl-1H-pyrazolo[3,4-d]pyrimidin-1-yl)ethyl]-6-chloro-3-ethoxy-2-[1-(3,3,3-trifluoropropyl)azetidin-3-yl]benzonitrile], < 10 nM.
For the compound `COc1c(C(C)n2nc(C(F)F)c3c(N)ncnc32)cc(C#N)c(C)c1C1CN(CC(F)F)C1` (racemic) [Example 136, 5-{1-[4-Amino-3-(difluoromethyl)-1H-pyrazolo[3,4-d]pyrimidin-1-yl]ethyl}-3-[1-(2,2-difluoroethyl)azetidin-3-yl]-4-methoxy-2-methylbenzonitrile], the IC50 is < 10 nM.

The record behind these values is US10092570B2 (Incyte Corporation, priority 2011, dated 2018).
